± gives the standard deviation of the averaged measurements.
Assays:
Conditions in all cases: 72 h
[1] = system: Vero E6; test: cell viability relative to DMSO; higher = less toxic
[2] = system: HepG2; test: as above
[3] = system: U2OS; test: as above
[4] = system: Caco-2; test: as above
[5] = system: Calu-3; test: as above
[6] = system: Vero E6; test: relative viability EC50 (midpoint between 100% and the lowest measured viability); higher = less toxic
[7] = system: HepG2; test: as above
[8] = system: U2OS; test: as above
[9] = system: Caco-2; test: as above
[10] = system: Calu-3; test: as above
[11] = system: Vero E6; test: drug sensitivity score (DSS) for viability; higher = more toxic; extreme values may be limits of the assay
[12] = system: HepG2; test: as above
[13] = system: U2OS; test: as above
[14] = system: Caco-2; test: as above
[15] = system: Calu-3; test: as above

## N[C@H](C(=O)O)c1ccc(O)c(C(=O)O)c1 [3-carboxy-4-hydroxyphenylglycine-(S)]
[1]; 1 nM
  cell viability: 104 ± 7.1%
[1]; 10 nM
  cell viability: 103.7 ± 0.35%
[1]; 100 nM
  cell viability: 99 ± 2.3%
[1]; 1000 nM
  cell viability: 106 ± 3.2%
[1]; 10000 nM
  cell viability: 101 ± 2.1%
[2]; 1 nM
  cell viability: 102.2 ± 0.28%
[2]; 10 nM
  cell viability: 97.5 ± 5.9%
[2]; 100 nM
  cell viability: 98.7 ± 0.28%
[2]; 1000 nM
  cell viability: 100 ± 2.3%
[2]; 10000 nM
  cell viability: 100 ± 1.3%
[3]; 1 nM
  cell viability: 101 ± 0.71%
[3]; 10 nM
  cell viability: 101 ± 1.9%
[3]; 100 nM
  cell viability: 103 ± 2.5%
[3]; 1000 nM
  cell viability: 94.8 ± 4.5%
[3]; 10000 nM
  cell viability: 102 ± 0.49%
[4]; 1 nM
  cell viability: 95.6 ± 1.8%
[4]; 10 nM
  cell viability: 101 ± 1.3%
[4]; 100 nM
  cell viability: 95.2 ± 2.6%
[4]; 1000 nM
  cell viability: 93.4 ± 0.57%
[4]; 10000 nM
  cell viability: 101 ± 4.5%
[5]; 1 nM
  cell viability: 96.5 ± 5.7%
[5]; 10 nM
  cell viability: 89 ± 0.99%
[5]; 100 nM
  cell viability: 96 ± 4.8%
[5]; 1000 nM
  cell viability: 94.2 ± 3%
[5]; 10000 nM
  cell viability: 101 ± 3%
[6]
  relative viability EC50: > 10 µM
[7]
  relative viability EC50: > 10 µM
[8]
  relative viability EC50: > 10 µM
[9]
  relative viability EC50: > 10 µM
[10]
  relative viability EC50: > 10 µM
[11]
  drug sensitivity score: 0
[12]
  drug sensitivity score: 0
[13]
  drug sensitivity score: 0
[14]
  drug sensitivity score: 0
[15]
  drug sensitivity score: 0

## COc1ccc([C@@H]2CC(=O)c3c(O)cc(O)cc3O2)cc1O [hesperetin]
[1]; 1 nM
  cell viability: 94.9%
[1]; 10 nM
  cell viability: 98.7%
[1]; 100 nM
  cell viability: 98.9%
[1]; 1000 nM
  cell viability: 90.1%
[1]; 10000 nM
  cell viability: 108%
[3]; 1 nM
  cell viability: 104%
[3]; 10 nM
  cell viability: 96.3%
[3]; 100 nM
  cell viability: 97.1%
[3]; 1000 nM
  cell viability: 99.8%
[3]; 10000 nM
  cell viability: 102%
[4]; 1 nM
  cell viability: 104%
[4]; 10 nM
  cell viability: 88.5%
[4]; 100 nM
  cell viability: 92.7%
[4]; 1000 nM
  cell viability: 104%
[4]; 10000 nM
  cell viability: 98.4%
[5]; 1 nM
  cell viability: 102%
[5]; 10 nM
  cell viability: 93.7%
[5]; 100 nM
  cell viability: 102%
[5]; 1000 nM
  cell viability: 93%
[5]; 10000 nM
  cell viability: 89.2%
[6]
  relative viability EC50: > 10 µM
[8]
  relative viability EC50: > 10 µM
[9]
  relative viability EC50: > 10 µM
[10]
  relative viability EC50: > 10 µM
[11]
  drug sensitivity score: 0
[13]
  drug sensitivity score: 0
[14]
  drug sensitivity score: 0
[15]
  drug sensitivity score: 0.1

## CO[C@H]1C[C@H](O[C@H]2CC[C@@]3(C)[C@H](CC[C@@H]4[C@@H]3CC[C@]3(C)[C@@H](C5=CC(=O)OC5)[C@@H](OC(C)=O)C[C@]43O)C2)O[C@@H](C)[C@@H]1O [oleandrin]
[1]; 1 nM
  cell viability: 101%
[1]; 10 nM
  cell viability: 87.5%
[1]; 100 nM
  cell viability: 1.1%
[1]; 1000 nM
  cell viability: 1.1%
[1]; 10000 nM
  cell viability: 1.3%
[2]; 1 nM
  cell viability: 102%
[2]; 10 nM
  cell viability: 107%
[2]; 100 nM
  cell viability: 38.1%
[2]; 1000 nM
  cell viability: 7.4%
[2]; 10000 nM
  cell viability: 6.4%
[3]; 1 nM
  cell viability: 104%
[3]; 10 nM
  cell viability: 98.4%
[3]; 100 nM
  cell viability: 10.8%
[3]; 1000 nM
  cell viability: 7.3%
[3]; 10000 nM
  cell viability: 9.5%
[4]; 1 nM
  cell viability: 98.1%
[4]; 10 nM
  cell viability: 79.5%
[4]; 100 nM
  cell viability: 17.8%
[4]; 1000 nM
  cell viability: 19.5%
[4]; 10000 nM
  cell viability: 20.9%
[5]; 1 nM
  cell viability: 102%
[5]; 10 nM
  cell viability: 89.3%
[5]; 100 nM
  cell viability: 31.6%
[5]; 1000 nM
  cell viability: 18.4%
[5]; 10000 nM
  cell viability: 17.4%
[6]
  relative viability EC50: 0.0214 µM
[7]
  relative viability EC50: 0.0769 µM
[8]
  relative viability EC50: 0.0334 µM
[9]
  relative viability EC50: 0.0155 µM
[10]
  relative viability EC50: 0.0355 µM
[11]
  drug sensitivity score: 32.3
[12]
  drug sensitivity score: 24.1
[13]
  drug sensitivity score: 28.1
[14]
  drug sensitivity score: 28.6
[15]
  drug sensitivity score: 24.5

## O=c1cc(N2CCNCC2)oc2c(-c3ccccc3)cccc12
[1]; 1 nM
  cell viability: 100%
[1]; 10 nM
  cell viability: 96.4%
[1]; 100 nM
  cell viability: 104%
[1]; 1000 nM
  cell viability: 93.1%
[1]; 10000 nM
  cell viability: 103%
[2]; 1 nM
  cell viability: 105%
[2]; 10 nM
  cell viability: 100%
[2]; 100 nM
  cell viability: 98.2%
[2]; 1000 nM
  cell viability: 101%
[2]; 10000 nM
  cell viability: 102%
[3]; 1 nM
  cell viability: 96.6%
[3]; 10 nM
  cell viability: 100%
[3]; 100 nM
  cell viability: 96.8%
[3]; 1000 nM
  cell viability: 102%
[3]; 10000 nM
  cell viability: 101%
[4]; 1 nM
  cell viability: 93.3%
[4]; 10 nM
  cell viability: 88.9%
[4]; 100 nM
  cell viability: 89.2%
[4]; 1000 nM
  cell viability: 93.9%
[4]; 10000 nM
  cell viability: 106%
[5]; 1 nM
  cell viability: 109%
[5]; 10 nM
  cell viability: 98.4%
[5]; 100 nM
  cell viability: 108%
[5]; 1000 nM
  cell viability: 106%
[5]; 10000 nM
  cell viability: 117%
[6]
  relative viability EC50: > 10 µM
[7]
  relative viability EC50: > 10 µM
[8]
  relative viability EC50: > 10 µM
[9]
  relative viability EC50: > 10 µM
[10]
  relative viability EC50: > 10 µM
[11]
  drug sensitivity score: 0
[12]
  drug sensitivity score: 0
[13]
  drug sensitivity score: 0
[14]
  drug sensitivity score: 0
[15]
  drug sensitivity score: 0

From the supplement of paper PMC13380429
